The source of these data is patent publication US9371320B2, “Heterocyclic compound” (TAKEDA PHARMACEUTICAL COMPANY LIMITED, priority 2012, dated 2016).

One assay concerns the target T1, Tyk2 (Homo sapiens, UniProt P29597).
T1 construct: purchased Invitrogen
The experiment in a line: Tyk2 enzyme inhibition test (LANCE method). The format is biochemical. The conditions noted are these: for inhibition at 1 µM: read-out: Inhibitory rate (%) Tyk2 1 μM. As to the method:
Tyk2 Enzyme Inhibition Test
(§1) Tyk2 enzyme inhibitory activity of test compounds was measured by LANCE method (PerkinElmer). First, a test compound diluted with assay buffer (50 mM HEPES (pH=7.5), 10 mM MgCl2, 1 mM EGTA, 2 mM DTT, 0.01% Tween20, 0.01% BSA) was added to 384-well plate at 2 μL each. Then, a Tyk2 (Invitrogen) solution and a fluorescence-labeled peptide substrate (ULight-JAK1, PerkinElmer) solution diluted with assay buffer at 375 ng/mL and 300 nM, respectively were added at 2 μL each. Then, enzyme reaction was started by adding 2 μL each of ATP solution prepared with assay buffer at 30 μM. After the reaction at room temperature for 1 hr, Detection Buffer (PerkinElmer) prepared to be 20 mM EDTA, 4 nM europium-labeled anti-phosphotyrosine antibody (PerkinElmer) was added at 6 μL each. After standing at room temperature for 1 hr, fluorescence intensity (excitation wavelength 340 nm, fluorescence wavelength 665 nm, delay time 100 microsecond) was measured by a plate reader, Envision (PerkinElmer). The inhibitory activity of each compound was calculated as relative value where fluorescence intensity of a well without enzyme is considered as 100% inhibition.

The target in another assay is T2, JAK1 (Homo sapiens, UniProt P23458).
T2 construct: purchased Invitrogen
Put plainly: JAK1 enzyme inhibition test (LANCE method). The assay is classed as biochemical. The conditions noted are these: for inhibition at 1 µM: read-out: Inhibitory rate (%) JAK1 1 μM. As to the method: JAK1 Enzyme Inhibition Test
as §1, with “JAK1 enzyme” for “Tyk2 enzyme”, “a JAK1” for “a Tyk2”, “at 187.5” for “at 375”, “at 150” for “at 30”

T1 sequence (P29597 whole entry): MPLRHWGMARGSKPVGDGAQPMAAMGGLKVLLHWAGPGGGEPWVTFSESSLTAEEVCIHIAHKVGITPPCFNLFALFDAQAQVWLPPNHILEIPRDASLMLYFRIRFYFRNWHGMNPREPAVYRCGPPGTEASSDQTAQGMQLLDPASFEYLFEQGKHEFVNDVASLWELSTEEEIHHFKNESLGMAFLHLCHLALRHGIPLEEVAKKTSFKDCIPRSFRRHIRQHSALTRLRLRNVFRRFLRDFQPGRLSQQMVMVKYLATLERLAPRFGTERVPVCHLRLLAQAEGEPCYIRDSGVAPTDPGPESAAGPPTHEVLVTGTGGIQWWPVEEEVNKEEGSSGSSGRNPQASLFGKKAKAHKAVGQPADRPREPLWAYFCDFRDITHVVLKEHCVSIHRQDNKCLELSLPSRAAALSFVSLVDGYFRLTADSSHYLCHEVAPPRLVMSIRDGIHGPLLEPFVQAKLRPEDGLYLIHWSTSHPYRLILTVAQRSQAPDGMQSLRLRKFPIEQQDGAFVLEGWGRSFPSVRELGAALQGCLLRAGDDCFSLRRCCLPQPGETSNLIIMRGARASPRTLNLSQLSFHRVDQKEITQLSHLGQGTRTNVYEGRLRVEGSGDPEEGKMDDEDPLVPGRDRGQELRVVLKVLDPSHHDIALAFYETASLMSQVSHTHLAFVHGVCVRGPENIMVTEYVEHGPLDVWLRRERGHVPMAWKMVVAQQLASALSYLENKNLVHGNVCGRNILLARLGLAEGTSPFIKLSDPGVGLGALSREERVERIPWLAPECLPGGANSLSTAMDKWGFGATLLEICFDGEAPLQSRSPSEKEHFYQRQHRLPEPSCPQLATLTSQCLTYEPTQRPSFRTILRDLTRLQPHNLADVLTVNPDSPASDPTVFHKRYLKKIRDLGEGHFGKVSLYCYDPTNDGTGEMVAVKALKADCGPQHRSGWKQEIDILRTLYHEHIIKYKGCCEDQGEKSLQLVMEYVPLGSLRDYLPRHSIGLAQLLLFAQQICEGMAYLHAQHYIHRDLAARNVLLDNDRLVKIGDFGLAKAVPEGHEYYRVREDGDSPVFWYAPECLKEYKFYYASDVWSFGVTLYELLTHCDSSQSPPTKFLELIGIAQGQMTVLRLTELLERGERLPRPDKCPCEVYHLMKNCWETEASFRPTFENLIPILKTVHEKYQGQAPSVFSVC
T2 sequence (P23458 whole entry): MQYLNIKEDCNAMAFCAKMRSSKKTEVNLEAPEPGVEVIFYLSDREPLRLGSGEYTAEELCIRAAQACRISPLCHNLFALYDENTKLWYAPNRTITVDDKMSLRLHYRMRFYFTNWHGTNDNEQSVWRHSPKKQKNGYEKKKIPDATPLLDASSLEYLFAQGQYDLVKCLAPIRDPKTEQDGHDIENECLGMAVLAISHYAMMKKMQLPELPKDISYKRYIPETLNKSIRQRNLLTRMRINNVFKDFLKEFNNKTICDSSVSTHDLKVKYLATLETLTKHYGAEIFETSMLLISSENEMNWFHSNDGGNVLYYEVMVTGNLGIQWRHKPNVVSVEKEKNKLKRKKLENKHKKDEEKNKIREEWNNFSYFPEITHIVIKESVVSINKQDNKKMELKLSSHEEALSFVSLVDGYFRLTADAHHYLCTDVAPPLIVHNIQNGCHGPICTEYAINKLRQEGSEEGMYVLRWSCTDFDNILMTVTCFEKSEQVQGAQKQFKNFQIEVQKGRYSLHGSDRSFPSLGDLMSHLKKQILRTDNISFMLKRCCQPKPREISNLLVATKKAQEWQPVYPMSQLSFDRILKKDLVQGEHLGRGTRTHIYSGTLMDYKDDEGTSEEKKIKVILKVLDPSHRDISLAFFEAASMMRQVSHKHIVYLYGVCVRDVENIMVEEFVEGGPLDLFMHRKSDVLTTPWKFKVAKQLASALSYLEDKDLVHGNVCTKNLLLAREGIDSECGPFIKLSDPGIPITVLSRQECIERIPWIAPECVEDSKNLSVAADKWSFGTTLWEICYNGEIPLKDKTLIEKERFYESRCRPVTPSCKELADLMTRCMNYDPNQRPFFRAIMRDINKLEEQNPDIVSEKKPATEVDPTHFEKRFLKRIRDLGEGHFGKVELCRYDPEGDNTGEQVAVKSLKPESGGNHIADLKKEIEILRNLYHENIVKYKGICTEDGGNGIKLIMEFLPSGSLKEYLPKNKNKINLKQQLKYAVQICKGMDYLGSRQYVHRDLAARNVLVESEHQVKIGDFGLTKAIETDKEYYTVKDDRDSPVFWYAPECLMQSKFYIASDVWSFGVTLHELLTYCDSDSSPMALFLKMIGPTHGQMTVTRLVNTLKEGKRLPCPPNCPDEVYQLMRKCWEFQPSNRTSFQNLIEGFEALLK

Turning to `N#CCc1ccc(-c2cn(C3CCOCC3)c3cc[nH]c(=O)c23)cc1` [Example 25, (4-(4-oxo-1-(tetrahydro-2H-pyran-4-yl)-4,5-dihydro-1H-pyrrolo[3,2-c]pyridin-3-yl)phenyl)acetonitrile], the inhibition at 1 µM was found to be 71% at Tyk2 (test compound 1 μM) and 77% on JAK1 (test compound 1 μM).

Consider `CCC(COC)n1cc(-c2ccc(C(N)=O)cc2)c2c(=O)[nH]ccc21` (stereo not shown) [Example 26, 4-(1-(1-methoxybutan-2-yl)-4-oxo-4,5-dihydro-1H-pyrrolo[3,2-c]pyridin-3-yl)benzamide], for which the inhibition at 1 µM at Tyk2 (test compound 1 μM) was 41%; on JAK1 (test compound 1 μM), 20%.

Consider `NC(=O)c1cc(-c2nn(C3CCOCC3)c3cc[nH]c(=O)c23)cs1` [Example 27, 4-(4-oxo-1-(tetrahydro-2H-pyran-4-yl)-4,5-dihydro-1H-pyrazolo[4,3-c]pyridin-3-yl)thiophene-2-carboxamide], for which the inhibition at 1 µM at Tyk2 (test compound 1 μM) and at JAK1 (test compound 1 μM) was 98% throughout.

For the compound `NS(=O)(=O)c1ccc(-c2nn(C3CCCOC3)c3cc[nH]c(=O)c23)cc1` (stereo not shown) [Example 28, 4-(4-oxo-1-(tetrahydro-2H-pyran-3-yl)-4,5-dihydro-1H-pyrazolo[4,3-c]pyridin-3-yl)benzenesulfonamide], the “Inhibitory rate (%) Tyk2 1 μM” value on Tyk2 (test compound 1 μM) is 97%. Moreover, on JAK1 (test compound 1 μM), the “Inhibitory rate (%) JAK1 1 μM” value turned out to be 99%.

As for `COC(=O)c1c[nH]c(=O)c2c(-c3ccc(C(N)=O)cc3)cn(C3CCCC3)c12` [Example 29, methyl 3-(4-carbamoylphenyl)-1-cyclopentyl-4-oxo-4,5-dihydro-1H-pyrrolo[3,2-c]pyridine-7-carboxylate], the inhibition at 1 µM was 83% on Tyk2 (test compound 1 μM) and 14% at JAK1 (test compound 1 μM).

In the case of `NS(=O)(=O)c1ccc(-c2nn(-c3ccccc3)c3cc[nH]c(=O)c23)cc1` [Example 30, 4-(4-oxo-1-phenyl-4,5-dihydro-1H-pyrazolo[4,3-c]pyridin-3-yl)benzenesulfonamide], the inhibition at 1 µM on Tyk2 (test compound 1 μM) was 92%; at JAK1 (test compound 1 μM), 94%.

For the compound `NS(=O)(=O)c1ccc(-c2cn([C@H]3CC[C@H](O)CC3)c3cc[nH]c(=O)c23)cc1` [Example 31, 4-(1-(trans-4-hydroxycyclohexyl)-4-oxo-4,5-dihydro-1H-pyrrolo[3,2-c]pyridin-3-yl)benzenesulfonamide], the inhibition at 1 µM amounted to 90% at Tyk2 (test compound 1 μM) and 95% at JAK1 (test compound 1 μM).

`NS(=O)(=O)c1ccc(-c2cn([C@H]3CC[C@@H](O)CC3)c3cc[nH]c(=O)c23)cc1` [Example 32, 4-(1-(cis-4-hydroxycyclohexyl)-4-oxo-4,5-dihydro-1H-pyrrolo[3,2-c]pyridin-3-yl)benzenesulfonamide]: the results for the inhibition at 1 µM on Tyk2 (test compound 1 μM) and on JAK1 (test compound 1 μM) were 95% and 98%, respectively.

On to `N#Cc1c[nH]c(=O)c2c(-c3csc(C(N)=O)c3)cn(C3CCCC3)c12` [Example 33, 4-(7-cyano-1-cyclopentyl-4-oxo-4,5-dihydro-1H-pyrrolo[3,2-c]pyridin-3-yl)thiophene-2-carboxamide], for which the inhibition at 1 µM at Tyk2 (test compound 1 μM) and on JAK1 (test compound 1 μM) was 99% in each case.

Take `COC(=O)c1c[nH]c(=O)c2c(-c3csc(C(N)=O)c3)cn(C3CCCC3)c12` [Example 34, methyl 3-(5-carbamoyl-3-thienyl)-1-cyclopentyl-4-oxo-4,5-dihydro-1H-pyrrolo[3,2-c]pyridine-7-carboxylate]: the inhibition at 1 µM at Tyk2 (test compound 1 μM) came to 99%; on JAK1 (test compound 1 μM), 92%.

As for `NS(=O)(=O)c1ccc(-c2nn(-c3c(F)cccc3F)c3cc[nH]c(=O)c23)cc1` [Example 35, 4-(1-(2,6-difluorophenyl)-4-oxo-4,5-dihydro-1H-pyrazolo[4,3-c]pyridin-3-yl)benzenesulfonamide], the inhibition at 1 µM at Tyk2 (test compound 1 μM) was 97%; on JAK1 (test compound 1 μM), 99%.

Take `COC(=O)c1cc(-c2nn(-c3c(F)cccc3F)c3cc[nH]c(=O)c23)cs1` [Example 36, methyl 4-(1-(2,6-difluorophenyl)-4-oxo-4,5-dihydro-1H-pyrazolo[4,3-c]pyridin-3-yl)thiophene-2-carboxylate]: the inhibition at 1 µM on Tyk2 (test compound 1 μM) turned out to be 98%; on JAK1 (test compound 1 μM) it was 97%.

Regarding `O=C(O)c1cc(-c2nn(-c3c(F)cccc3F)c3cc[nH]c(=O)c23)cs1` [Example 37, 4-(1-(2,6-difluorophenyl)-4-oxo-4,5-dihydro-1H-pyrazolo[4,3-c]pyridin-3-yl)thiophene-2-carboxylic acid], the inhibition at 1 µM at Tyk2 (test compound 1 μM) and at JAK1 (test compound 1 μM) was 99% throughout.

As to `NC(=O)c1cc(-c2nn(-c3c(F)cccc3F)c3cc[nH]c(=O)c23)cs1` [Example 38, 4-(1-(2,6-difluorophenyl)-4-oxo-4,5-dihydro-1H-pyrazolo[4,3-c]pyridin-3-yl)thiophene-2-carboxamide], the inhibition at 1 µM at Tyk2 (test compound 1 μM) is 99%; at JAK1 (test compound 1 μM), 100%.

For the compound `N#CCc1ccc(-c2nn(-c3c(F)cccc3F)c3cc[nH]c(=O)c23)cc1` [Example 39, (4-(1-(2,6-difluorophenyl)-4-oxo-4,5-dihydro-1H-pyrazolo[4,3-c]pyridin-3-yl)phenyl)acetonitrile], the inhibition at 1 µM at Tyk2 (test compound 1 μM) was found to be 98%; at JAK1 (test compound 1 μM) it was 99%.

On to `NC(=O)c1cc(-c2cn(C3CCCC3)c3c(CO)c[nH]c(=O)c23)cs1` [Example 40, 4-(1-cyclopentyl-7-(hydroxymethyl)-4-oxo-4,5-dihydro-1H-pyrrolo[3,2-c]pyridin-3-yl)thiophene-2-carboxamide], for which the inhibition at 1 µM at Tyk2 (test compound 1 μM) and on JAK1 (test compound 1 μM) was 78% in each case.

As to `O=c1[nH]ccc2c1c(C1=CCCCC1)nn2C1CCCC1` [Example 41, 3-(cyclohex-1-en-1-yl)-1-cyclopentyl-1,5-dihydro-4H-pyrazolo[4,3-c]pyridin-4-one], the inhibition at 10 µM was found to be 49% at Tyk2 (test compound 10 μM, read-out: Inhibitory rate (%) Tyk2 10 μM) and 38% on JAK1 (test compound 10 μM, read-out: Inhibitory rate (%) JAK1 10 μM).

For the compound `O=c1[nH]ccc2c1c(C1=CCOCC1)nn2C1CCCC1` [Example 42, 1-cyclopentyl-3-(3,6-dihydro-2H-pyran-4-yl)-1,5-dihydro-4H-pyrazolo[4,3-c]pyridin-4-one], the inhibition at 1 µM at Tyk2 (test compound 1 μM) was 51%; on JAK1 (test compound 1 μM) it was 53%.

In the case of `O=c1[nH]ccc2c1c(-c1ccccc1)nn2C1CCCC1` [Example 43, 1-cyclopentyl-3-phenyl-1,5-dihydro-4H-pyrazolo[4,3-c]pyridin-4-one], the inhibition at 1 µM at Tyk2 (test compound 1 μM) was determined as 91%; on JAK1 (test compound 1 μM), 87%.

As to `O=c1[nH]ccc2c1c(-c1ccncc1)nn2C1CCCC1` [Example 44, 1-cyclopentyl-3-(pyridin-4-yl)-1,5-dihydro-4H-pyrazolo[4,3-c]pyridin-4-one], the inhibition at 1 µM was determined as 91% on Tyk2 (test compound 1 μM) and 94% on JAK1 (test compound 1 μM).

In the case of `O=c1[nH]ccc2c1c(-c1ccc(OC(F)(F)F)cc1)nn2C1CCCC1` [Example 45, 1-cyclopentyl-3-(4-(trifluoromethoxy)phenyl)-1,5-dihydro-4H-pyrazolo[4,3-c]pyridin-4-one], the inhibition at 1 µM is 74% on Tyk2 (test compound 1 μM) and 90% at JAK1 (test compound 1 μM).

Consider `COc1ccc(-c2nn(C3CCCC3)c3cc[nH]c(=O)c23)cc1` [Example 46, 1-cyclopentyl-3-(4-methoxyphenyl)-1,5-dihydro-4H-pyrazolo[4,3-c]pyridin-4-one], for which the inhibition at 1 µM on Tyk2 (test compound 1 μM) worked out at 95%; at JAK1 (test compound 1 μM), 91%.

As for `COc1cccc(-c2nn(C3CCCC3)c3cc[nH]c(=O)c23)c1` [Example 47, 1-cyclopentyl-3-(3-methoxyphenyl)-1,5-dihydro-4H-pyrazolo[4,3-c]pyridin-4-one], the inhibition at 1 µM came to 71% on Tyk2 (test compound 1 μM) and 62% on JAK1 (test compound 1 μM).

In the case of `COc1ccccc1-c1nn(C2CCCC2)c2cc[nH]c(=O)c12` [Example 48, 1-cyclopentyl-3-(2-methoxyphenyl)-1,5-dihydro-4H-pyrazolo[4,3-c]pyridin-4-one], the results for the inhibition at 1 µM on Tyk2 (test compound 1 μM) and at JAK1 (test compound 1 μM) were 7% and 3%, respectively.

As to `O=c1[nH]ccc2c1c(-c1ccc3c(c1)OCO3)nn2C1CCCC1` [Example 49, 3-(1,3-benzodioxol-5-yl)-1-cyclopentyl-1,5-dihydro-4H-pyrazolo[4,3-c]pyridin-4-one], the inhibition at 1 µM on Tyk2 (test compound 1 μM) worked out at 89%; at JAK1 (test compound 1 μM) it was 85%.

On to `Cc1ccc(-c2nn(C3CCCC3)c3cc[nH]c(=O)c23)cc1` [Example 50, 1-cyclopentyl-3-(4-methylphenyl)-1,5-dihydro-4H-pyrazolo[4,3-c]pyridin-4-one], for which the inhibition at 1 µM at Tyk2 (test compound 1 μM) and at JAK1 (test compound 1 μM) was 92% in each case.
